The results in this text go back to patent US10975084B2, “KDM5 inhibitors” (Merck Sharp & Dohme Corp., priority 2016, dated 2021).

Each structure is given as a SMILES string.

For this experiment, the target named is KDM5B (Homo sapiens (Human), UniProt Q9UGL1). The experiment is described as follows: KDM5B TR-FRET Enzyme Activity Assay. The class given is biochemical. As to conditions: LANCE TR-FRET; 5 nM full-length recombinant KDM5B; ten point titration 100000 nM to 5.08 nM. In outline: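 Full-length KDM5B from Sf21 cells (5 nM) was preincubated 30 min with compound in HEPES pH 7.3 buffer with ascorbate and 2 μM Fe(II). Reaction with 500 nM biotinylated H3K4Me3 peptide and 500 nM α-ketoglutarate ran 60 min. Product was detected by TR-FRET (Eu-anti-H3K4Me1-2/streptavidin-Dylight 650, 665/615 ratio); IC50 came from a 4-parameter fit.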
A general note: Time-resolved FRET reads energy transfer from a long-lived donor to a nearby acceptor.

A word on the IC50: it is the concentration at which inhibition is half-maximal.

KDM5B, sequence (Q9UGL1 whole entry): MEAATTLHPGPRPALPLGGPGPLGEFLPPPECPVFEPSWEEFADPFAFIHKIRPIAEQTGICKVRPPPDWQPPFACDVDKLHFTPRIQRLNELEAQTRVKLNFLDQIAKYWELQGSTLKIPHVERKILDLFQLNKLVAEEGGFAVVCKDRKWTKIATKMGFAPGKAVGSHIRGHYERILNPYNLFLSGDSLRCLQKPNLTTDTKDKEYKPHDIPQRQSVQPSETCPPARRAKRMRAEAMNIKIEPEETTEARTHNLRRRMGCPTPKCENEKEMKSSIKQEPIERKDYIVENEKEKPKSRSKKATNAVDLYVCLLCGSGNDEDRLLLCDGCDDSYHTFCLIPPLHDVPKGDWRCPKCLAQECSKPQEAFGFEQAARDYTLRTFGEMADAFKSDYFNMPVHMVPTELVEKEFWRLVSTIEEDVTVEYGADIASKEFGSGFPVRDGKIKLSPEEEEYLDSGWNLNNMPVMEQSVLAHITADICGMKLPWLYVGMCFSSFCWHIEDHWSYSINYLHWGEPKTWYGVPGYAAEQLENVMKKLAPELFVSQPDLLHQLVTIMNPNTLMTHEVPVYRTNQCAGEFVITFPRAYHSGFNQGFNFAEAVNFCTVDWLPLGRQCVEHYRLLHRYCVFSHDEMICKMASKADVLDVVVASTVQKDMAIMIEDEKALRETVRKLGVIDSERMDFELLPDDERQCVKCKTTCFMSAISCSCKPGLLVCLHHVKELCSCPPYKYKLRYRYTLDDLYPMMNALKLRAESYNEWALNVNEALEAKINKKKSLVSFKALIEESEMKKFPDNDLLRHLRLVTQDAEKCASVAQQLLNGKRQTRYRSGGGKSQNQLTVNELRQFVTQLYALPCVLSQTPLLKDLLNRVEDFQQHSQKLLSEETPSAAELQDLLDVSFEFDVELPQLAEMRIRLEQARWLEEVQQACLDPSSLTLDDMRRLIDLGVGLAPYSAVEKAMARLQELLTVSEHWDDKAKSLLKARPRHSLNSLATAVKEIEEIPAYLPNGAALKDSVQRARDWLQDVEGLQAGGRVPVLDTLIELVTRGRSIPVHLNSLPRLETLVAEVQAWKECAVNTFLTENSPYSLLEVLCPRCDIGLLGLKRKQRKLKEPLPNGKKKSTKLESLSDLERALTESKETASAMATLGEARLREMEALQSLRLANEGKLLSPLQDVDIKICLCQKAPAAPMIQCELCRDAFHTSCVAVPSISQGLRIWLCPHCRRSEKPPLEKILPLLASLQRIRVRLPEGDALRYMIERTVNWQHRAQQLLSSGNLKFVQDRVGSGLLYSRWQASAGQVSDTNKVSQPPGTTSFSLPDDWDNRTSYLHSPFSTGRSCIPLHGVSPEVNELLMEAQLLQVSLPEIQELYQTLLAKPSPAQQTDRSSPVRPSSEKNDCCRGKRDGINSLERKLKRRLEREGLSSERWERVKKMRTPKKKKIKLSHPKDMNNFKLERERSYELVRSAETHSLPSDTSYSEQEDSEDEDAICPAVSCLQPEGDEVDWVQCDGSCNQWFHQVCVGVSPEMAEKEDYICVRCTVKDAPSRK

For `CC(C)c1c(-c2cnn(Cc3cccnc3)c2)[nH]c2ncnn2c1=O` [Example 11-40, 6-(1-methylethyl)-5-[1-(pyridin-3-ylmethyl)-1H-pyrazol-4-yl][1,2,4]triazolo[1,5-a]pyrimidin-7(4H)-one], the IC50 was determined as 5.77 nM. For `CC(C)c1c(-c2ccc(N3CCCCC3)cc2)[nH]c2ncnn2c1=O` [Example 11-41, 6-(1-methylethyl)-5-(4-piperidin-1-ylphenyl)[1,2,4]triazolo[1,5-a]pyrimidin-7(4H)-one], the IC50 was found to be 11.8 nM. For `CC(C)c1c(-c2cccc(N3CCCCC3)c2)[nH]c2ncnn2c1=O` [Example 11-42, 6-(1-methylethyl)-5-(3-piperidin-1-ylphenyl)[1,2,4]triazolo[1,5-a]pyrimidin-7(4H)-one] the value was 74.7 nM; for `CC(C)c1c(-c2coc(-c3ccc(F)cc3)n2)[nH]c2ncnn2c1=O` [Example 11-43, 5-[2-(4-fluorophenyl)-1,3-oxazol-4-yl]-6-(1-methylethyl)[1,2,4]triazolo[1,5-a]pyrimidin-7(4H)-one], 23.8 nM; for `CC(C)c1c(-c2cccc(N3CCOCC3)c2)[nH]c2ncnn2c1=O` [Example 11-44, 6-(1-methylethyl)-5-(3-morpholin-4-ylphenyl)[1,2,4]triazolo[1,5-a]pyrimidin-7(4H)-one], 46.3 nM. For `CCOC(=O)Cc1ccc(-c2[nH]c3ncnn3c(=O)c2C(C)C)cc1` [Example 11-45, ethyl {4-[6-(1-methylethyl)-7-oxo-4,7-dihydro[1,2,4]triazolo[1,5-a]pyrimidin-5-yl]phenyl}acetate], the IC50 came out at 17.4 nM.

For the compound `CC(C)c1c(-c2cccc(Oc3ccccc3)c2)[nH]c2ncnn2c1=O` [Example 11-46, 6-(1-methylethyl)-5-(3-phenoxyphenyl)[1,2,4]triazolo[1,5-a]pyrimidin-7(4H)-one], the IC50 was determined as 303 nM. For `CC(C)c1c(-c2cnn(CCS(C)(=O)=O)c2)[nH]c2ncnn2c1=O` [Example 11-47, 6-(1-methylethyl)-5-{1-[2-(methylsulfonyl)ethyl]-1H-pyrazol-4-yl}[1,2,4]triazolo[1,5-a]pyrimidin-7(4H)-one] the value was 6.93 nM.

For the compound `CC(C)c1c(-c2ccc(CN3CCCCC3)cc2)[nH]c2ncnn2c1=O` [Example 11-48, 6-(1-methylethyl)-5-[4-(piperidin-1-ylmethyl)phenyl][1,2,4]triazolo[1,5-a]pyrimidin-7(4H)-one], the half-inhibitory concentration (IC50) was found to be 16.8 nM. For `CC(C)c1c(-c2cccc(CN3CCCCC3)c2)[nH]c2ncnn2c1=O` [Example 11-49, 6-(1-methylethyl)-5-[3-(piperidin-1-ylmethyl)phenyl][1,2,4]triazolo[1,5-a]pyrimidin-7(4H)-one] the value was 33.2 nM. Turning to `CC(C)c1c(-c2ccc(C(O)C(F)(F)F)cc2)[nH]c2ncnn2c1=O` (centres unmarked) [Example 11-50, 6-(1-methylethyl)-5-[4-(2,2,2-trifluoro-1-hydroxyethyl)-phenyl][1,2,4]triazolo[1,5-a]pyrimidin-7(4H)-one], the half-inhibitory concentration (IC50) worked out at 20.1 nM.

For `CC(C)c1c(-c2cnn(-c3cccc(Cl)c3)c2)[nH]c2ncnn2c1=O` [Example 11-51, 5-[1-(3-chlorophenyl)-1H-pyrazol-4-yl]-6-(1-methylethyl)[1,2,4]triazolo[1,5-a]pyrimidin-7(4H)-one], the IC50 is 9.66 nM.

Turning to `CC(C)c1c(-c2cnn(CCN3CCOCC3)c2)[nH]c2ncnn2c1=O` [Example 11-52, 6-(1-methylethyl)-5-[1-(2-morpholin-4-ylethyl)-1H-pyrazol-4-yl][1,2,4]triazolo[1,5-a]pyrimidin-7(4H)-one], the IC50 worked out at 6.96 nM. For `CC(C)c1c(-c2cnn3c2CCCC3)[nH]c2ncnn2c1=O` [Example 11-53, 6-(1-methylethyl)-5-(4,5,6,7-tetrahydropyrazolo[1,5-a]pyridin-3-yl)[1,2,4]triazolo[1,5-a]pyrimidin-7(4H)-one], the IC50 is 75.1 nM.

For `CC(C)c1c(-c2cccc(C(O)C(F)(F)F)c2)[nH]c2ncnn2c1=O` (centres unmarked) [Example 11-54, 6-(1-methylethyl)-5-[3-(2,2,2-trifluoro-1-hydroxyethyl)phenyl][1,2,4]triazolo[1,5-a]pyrimidin-7(4H)-one], the IC50 was determined as 31.4 nM. For the compound `CC(C)c1c(/C=C/c2ccccc2)[nH]c2ncnn2c1=O` [Example 11-55, 6-(1-methylethyl)-5-[(E)-2-phenylethenyl][1,2,4]triazolo[1,5-a]pyrimidin-7(4H)-one], the IC50 stood at 9.45 nM. As to `CC(C)c1c(C2=CCC(C#N)CC2)[nH]c2ncnn2c1=O` (centres unmarked) [Example 11-56], the concentration for half-maximal inhibition (IC50) is 110 nM. Regarding `COc1cccc(-c2[nH]c3ncnn3c(=O)c2C(C)C)c1` [Example 11-57, 5-(3-methoxyphenyl)-6-(1-methylethyl) [1,2,4]triazolo[1,5-a]pyrimidin-7(4H)-one], the IC50 came to 55.4 nM. Turning to `COc1ccc(-c2[nH]c3ncnn3c(=O)c2C(C)C)cc1` [Example 11-58, 5-(4-methoxyphenyl)-6-(1-methylethyl) [1,2,4]triazolo[1,5-a]pyrimidin-7(4H)-one], the IC50 amounted to 37.3 nM. With `CC(C)c1c(-c2cccc(CO)c2)[nH]c2ncnn2c1=O` [Example 11-59, 5-[3-(hydroxymethyl)phenyl]-6-(1-methylethyl)[1,2,4]triazolo[1,5-a]pyrimidin-7(4H)-one] the figure was 26.5 nM. Take `CC(C)c1c(-c2ccc(CO)cc2)[nH]c2ncnn2c1=O` [Example 11-60, 5-[4-(hydroxymethyl)phenyl]-6-(1-methylethyl)[1,2,4]triazolo[1,5-a]pyrimidin-7(4H)-one]: the IC50 was found to be 13.5 nM. In the case of `Cc1nn(C)c(C)c1-c1[nH]c2ncnn2c(=O)c1C(C)C` [Example 11-61, 6-(1-methylethyl)-5-(1,3,5-trimethyl-1H-pyrazol-4-yl)[1,2,4]triazolo[1,5-a]pyrimidin-7(4H)-one], the IC50 is 2170 nM. As to `CC(C)c1c(C2=CCC(C)(C)CC2)[nH]c2ncnn2c1=O` [Example 11-62, 5-(4,4-dimethylcyclohex-1-en-1-yl)-6-(1-methylethyl)[1,2,4]triazolo[1,5-a]pyrimidin-7(4H)-one], the IC50 stood at 1030 nM.

Regarding `CC(C)c1c(-c2ccc(Cl)cc2)[nH]c2ncnn2c1=O` [Example 11-63, 5-(4-chlorophenyl)-6-(1-methylethyl)[1,2,4]triazolo[1,5-a]pyrimidin-7(4H)-one], the concentration for half-maximal inhibition (IC50) was 71.5 nM.

Consider `CC(C)c1c(-c2cccc(Cl)c2)[nH]c2ncnn2c1=O` [Example 11-64, 5-(3-chlorophenyl)-6-(1-methylethyl)[1,2,4]triazolo[1,5-a]pyrimidin-7(4H)-one], for which the IC50 amounted to 91.8 nM. In the case of `CC(C)c1c(-c2ccccc2Cl)[nH]c2ncnn2c1=O` [Example 11-65, 5-(2-chlorophenyl)-6-(1-methylethyl)[1,2,4]triazolo[1,5-a]pyrimidin-7(4H)-one], the IC50 is 3360 nM. As for `CC(C)c1c(-c2cccc(CC#N)c2)[nH]c2ncnn2c1=O` [Example 11-66, {3-[6-(1-methylethyl)-7-oxo-4,7-dihydro[1,2,4]triazolo[1,5-a]pyrimidin-5-yl]phenyl}acetonitrile], the IC50 was determined as 8.93 nM. With `CC(C)c1c(-c2ccc(CC#N)cc2)[nH]c2ncnn2c1=O` [Example 11-67, {4-[6-(1-methylethyl)-7-oxo-4,7-dihydro[1,2,4]triazolo[1,5-a]pyrimidin-5-yl]phenyl}acetonitrile], the 50% inhibitory concentration (IC50) stood at 18.2 nM. With `CC(C)c1c(-c2cnc3[nH]ccc3c2)[nH]c2ncnn2c1=O` [Example 11-68, 6-(1-methylethyl)-5-(1H-pyrrolo[2,3-b]pyridin-5-yl)[1,2,4]triazolo[1,5-a]pyrimidin-7(4H)-one], the IC50 was determined as 20 nM.

As for `CC(C)c1c(-c2ccc3nccn3c2)[nH]c2ncnn2c1=O` [Example 11-69, 5-imidazo[1,2-a]pyridin-6-yl-6-(1-methylethyl)[1,2,4]triazolo[1,5-a]pyrimidin-7(4H)-one], the IC50 came to 25.8 nM. In the case of `CC(C)c1c(-c2ccc3nc[nH]c3c2)[nH]c2ncnn2c1=O` [Example 11-70, 5-(1H-benzimidazol-6-yl)-6-(1-methylethyl)[1,2,4]triazolo[1,5-a]pyrimidin-7(4H)-one], the IC50 came to 13.5 nM. For the compound `CC(C)c1c(-c2cccc3[nH]ncc23)[nH]c2ncnn2c1=O` [Example 11-71, 5-(1H-indazol-4-yl)-6-(1-methylethyl)[1,2,4]triazolo[1,5-a]pyrimidin-7(4H)-one], the IC50 stood at 208 nM. For `CC(C)c1c(-c2cnn3ncccc23)[nH]c2ncnn2c1=O` [Example 11-72, 6-(1-methylethyl)-5-pyrazolo[1,5-b]pyridazin-3-yl[1,2,4]triazolo[1,5-a]pyrimidin-7(4H)-one], the IC50 came out at 20.1 nM.

Turning to `CC(C)c1c(-c2ccc3cccnc3c2)[nH]c2ncnn2c1=O` [Example 11-73, 6-(1-methylethyl)-5-quinolin-7-yl[1,2,4]triazolo[1,5-a]pyrimidin-7(4H)-one], the IC50 was 27.2 nM. Turning to `CC(C)c1c(-c2ccc3ncccc3c2)[nH]c2ncnn2c1=O` [Example 11-74, 6-(1-methylethyl)-5-quinolin-6-yl[1,2,4]triazolo[1,5-a]pyrimidin-7(4H)-one], the IC50 came out at 14.7 nM.

Regarding `CC(C)c1c(-c2ccnc3ccccc23)[nH]c2ncnn2c1=O` [Example 11-75, 6-(1-methylethyl)-5-quinolin-4-yl[1,2,4]triazolo[1,5-a]pyrimidin-7(4H)-one], the IC50 was determined as 904 nM. For the compound `CC(C)c1c(-c2cnc3ccccc3c2)[nH]c2ncnn2c1=O` [Example 11-76, 6-(1-methylethyl)-5-quinolin-3-yl[1,2,4]triazolo[1,5-a]pyrimidin-7(4H)-one], the IC50 is 23.8 nM. Take `CC(C)c1c(-c2cc3ccccc3n2C)[nH]c2ncnn2c1=O` [Example 11-77, 6-(1-methylethyl)-5-(1-methyl-1H-indol-2-yl)[1,2,4]triazolo[1,5-a]pyrimidin-7(4H)-one]: the IC50 is 1260 nM.
